Drawing on patent US7932252B2, “Aryl sulfonamides” (ChemoCentryx, Inc., priority 2004, dated 2011), this text covers IC50 for 39 compounds.

Read-outs that look alike come from different tables or passages of the source. Some results are limits rather than exact numbers.

The target in this experiment is T1, CCR9 (Homo sapiens, UniProt P51686).
T1 construct: CCR9-expressing cells (such as a T cell line MOLT-4 cells); host or cells: MOLT-4
T1 sequence (P51686 1-369): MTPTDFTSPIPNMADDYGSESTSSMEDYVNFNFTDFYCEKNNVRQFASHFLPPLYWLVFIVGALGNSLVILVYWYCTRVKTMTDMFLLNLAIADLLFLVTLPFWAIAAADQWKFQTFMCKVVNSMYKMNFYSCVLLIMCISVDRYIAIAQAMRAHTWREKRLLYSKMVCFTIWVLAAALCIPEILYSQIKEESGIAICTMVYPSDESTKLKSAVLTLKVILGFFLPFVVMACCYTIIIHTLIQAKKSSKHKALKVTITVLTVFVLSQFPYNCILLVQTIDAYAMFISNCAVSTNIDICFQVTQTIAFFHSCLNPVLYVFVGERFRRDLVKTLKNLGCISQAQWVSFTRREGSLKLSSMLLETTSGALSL
In words: chemotaxis (conventional migration) assay and/or calcium mobilization (calcium flux) assay, TECK-induced, MOLT-4 cells. The conditions noted are these: read-out: IC50, activity in either or both of the chemotaxis assay and calcium mobilization assays. Format: cell-based. The procedure: MOLT-4 cells were obtained from the American Type Culture Collection (Manassas, Va.) and cultured in RPMI tissue culture medium supplemented with 10% fetal calf serum (FCS) in a humidified 5% CO2 incubator at 37° C. Recombinant human chemokine protein TECK was obtained from R&D Systems (Minneapolis, Minn.). ChemoTX® chemotaxis microchambers were purchased from Neuro Probe (Gaithersburg, Md.). CyQUANT® cell proliferation kits were purchased from Molecular Probes (Eugene, Oreg.). Calcium indicator dye Fluo-4 AM was purchased from Molecular Devices (Mountain View, Calif.).
Conventional migration assay was used to determine the efficacy of potential receptor antagonists in blocking migration mediated through CCR9. This assay was routinely performed using the ChemoTX® microchamber system with a 5-μm pore-sized polycarbonate membrane. To begin such an assay, MOLT-4 cells were harvested by centrifugation of cell suspension at 1000 PRM on a GS-6R Beckman centrifuge. The cell pellet was resuspended in chemotaxis buffer (HBSS with 0.1% BSA) at 5×10^6 cells/mL. Test compounds at desired concentrations were prepared from 10 mM stock solutions by serial dilutions in chemotaxis buffer. An equal volume of cells and compounds were mixed and incubated at room temperature for 15 minutes. Afterwards, 20 μL of the mixture was transferred onto the porous membrane of a migration microchamber, with 29 μL of 50 nM chemokine TECK protein placed at the lower chamber. Following a 150-minute incubation at 37° C., during which cells migrated against the chemokine gradient, the assay was terminated by removing the cell drops from atop the filter. To quantify cells migrated across the membrane, 5 μL of 7× CyQUANT® solution was added to each well in the lower chamber, and the fluorescence signal measured on a Spectrafluor Plus fluorescence plate reader (TECAN, Durham, N.C.). The degree of inhibition was determined by comparing migration signals between compound-treated and untreated cells. IC50 calculation was further performed by non-linear squares regression analysis using Graphpad Prism (Graphpad Software, San Diego, Calif.).
Calcium flux assay measures an increase in intracellular calcium following ligand-induced receptor activation. In the screen of CCR9 antagonists, it was used as a secondary assay carried out on a FLIPR® machine (Molecular Devices, Mountain View, Calif.). To begin an assay, MOLT-4 cells were harvested by centrifugation of cell suspension, and resuspended to 1.5×10^6 cells/mL in HBSS (with 1% fetal calf serum). Cells were then labeled with a calcium indicator dye Fluo-4 AM for 45 minutes at 37° C. with gentle shaking. Following incubation, cells were pelletted, washed once with HBSS and resuspended in the same buffer at a density of 1.6×10^6 cells/mL. One hundred microliters of labeled cells were mixed with 10 μL of test compound at the appropriate concentrations on an assay plate. Chemokine protein TECK was added at a final concentration of 25 nM to activate the receptor. The degree of inhibition was determined by comparing calcium signals between compound-treated and untreated cells. IC50 calculations were further performed by non-linear squares regression analysis using Graphpad Prism (Graphpad Software, San Diego, Calif.).
Activity is provided as follows for either or both of the chemotaxis assay and/or calcium mobilization assays, described above.

Setting [1] is: Table 2, assay not specified per compound.
Where [2] appears, read: Table 4 (++), assay not specified per compound.
The mark [3] stands for this setting: Table 1, assay not specified per compound.
The mark [4] stands for this setting: Table 3, assay not specified per compound.

Take `CC(C)(C)c1ccc(S(=O)(=O)Nc2ccc(Cl)cc2-c2c3ccccc3cc[n+]2[O-])cc1`: the IC50 under setting [1] was less than 2000 nM. In the case of `CC(C)(C)c1ccc(S(=O)(=O)Nc2ccccc2-c2ncc(-c3ccccc3)[nH]2)cc1`, under setting [2], the IC50 is 2000 to 10000 nM. As to `CC(C)(C)c1ccc(S(=O)(=O)Nc2ccc(Cl)cc2C(O)c2cccnc2)cc1` (stereo not drawn), under setting [3], the IC50 is less than 500 nM. `COc1ccc(S(=O)(=O)Nc2ccc(Cl)cc2-c2ccccc2OC)cc1`: the IC50 under setting [2] was 2000 to 10000 nM. As for `CC(C)(C)c1ccc(S(=O)(=O)Nc2ccc(Cl)cc2C2(c3cc[n+]([O-])cc3)OCCO2)cc1`, the IC50 under setting [4] fell in the range of 500 to 5000 nM. Regarding `CC(C)(C)c1ccc(S(=O)(=O)Nc2ccc(Cl)cc2-c2nnn[nH]2)cc1`, the IC50 under setting [1] is less than 2000 nM. Consider `CO/N=C(\c1ccccc1)c1cc(Cl)ccc1NS(=O)(=O)c1ccc(C)cc1`, for which the IC50 under setting [4] was in the range of 500 to 5000 nM. As for `CC(C)(C)c1ccc(S(=O)(=O)Nc2ccc(Cl)cc2-c2nccc3ccccc23)cc1`, the IC50 under setting [1] was less than 2000 nM.

For `C=CC(O)(c1cc[n+]([O-])cc1)c1cc(Cl)ccc1NS(=O)(=O)c1ccc(C(C)(C)C)cc1` (stereo not drawn), the IC50 under setting [3] was less than 500 nM. With `COc1ccc(S(=O)(=O)Nc2ccc(Cl)cc2-c2ccc(F)cc2)cc1`, the IC50 under setting [2] lay within 2000 to 10000 nM. In the case of `C=C(c1ccccc1)c1cc(Cl)ccc1NS(=O)(=O)c1ccc(C)cc1`, the IC50 under setting [4] was 500 to 5000 nM. Still for that read-out and setting: as for `CC(C)(C)c1ccc(S(=O)(=O)Nc2ccc(Cl)cc2C(C)(O)c2cc[n+]([O-])cc2)cc1` (stereo not drawn), the figure is 500 to 5000 nM.

For `CO/N=C(/c1ccncc1)c1cc(Cl)ccc1NS(=O)(=O)c1ccc(C(C)(C)C)cc1`, the IC50 under setting [3] is less than 500 nM. With `CC(=O)c1ccc(S(=O)(=O)Nc2ccc(Cl)cc2C(O)c2cccnc2)cc1` (stereo not drawn), the IC50 under setting [4] lay in the range of 500 to 5000 nM. For `O=S(=O)(Nc1ccc(Cl)cc1C(O)c1ccncc1)c1ccc(-c2cnco2)cc1` (stereo not drawn), under setting [3], the IC50 is less than 500 nM. As to `CC(C)(C)c1ccc(S(=O)(=O)Nc2ccc(Cl)cc2C(O)c2ccccc2)cc1` (stereo not drawn), the half-inhibitory concentration (IC50) under setting [3] was less than 500 nM. Same read-out and setting: the result for `CO/N=C(\c1ccncc1)c1cc(Cl)ccc1NS(=O)(=O)c1ccc(C(C)(C)C)cc1` reads less than 500 nM. On to `COc1ccc(S(=O)(=O)Nc2ccc(Cl)cc2-c2cccc(OC)c2)cc1`, for which the IC50 under setting [2] lay in the range of 2000 to 10000 nM. Consider `CC(C)(C)c1ccc(S(=O)(=O)Nc2ccc(Cl)cc2C(O)c2cc[n+]([O-])cc2)cc1` (stereo not drawn), for which the IC50 under setting [3] was less than 500 nM. For the compound `CC(C)(C)c1ccc(S(=O)(=O)Nc2ccc(Cl)cc2C(N)c2cc[n+]([O-])cc2)cc1` (stereo not drawn), the IC50 under setting [3] was less than 500 nM. Consider `CCc1ccc(S(=O)(=O)Nc2ccc(Cl)cc2C(O)c2ccncc2)cc1` (stereo not drawn), for which the IC50 under setting [3] is less than 500 nM.

On to `COc1ccc(S(=O)(=O)Nc2ccc(Cl)cc2-c2ccc(C)cc2)cc1`, for which the IC50 under setting [2] is 2000 to 10000 nM.

Consider `COc1ccc(-c2cc(Cl)ccc2NS(=O)(=O)c2ccc(OC)cc2)cc1`, for which, under setting [2], the IC50 lay in the range of 2000 to 10000 nM. Take `CC(C)Oc1ccc(S(=O)(=O)Nc2ccc(Cl)cc2C(O)c2ccncc2)cc1` (stereo not drawn): the IC50 under setting [3] is less than 500 nM.

With `CC(C)(C)c1ccc(S(=O)(=O)Nc2ccc(Cl)cc2C(O)c2ccncc2)cc1` (stereo not drawn), the IC50 under setting [3] was less than 500 nM. `CC(C)(C)c1ccc(S(=O)(=O)Nc2ccc(Cl)cc2-c2cc3ccccc3cn2)cc1`: under setting [1], the IC50 is less than 2000 nM. `CC(C)(C)c1ccc(S(=O)(=O)Nc2ccc(Cl)cc2C(C)(C)c2cc[n+]([O-])cc2)cc1`: under setting [4], the IC50 fell in the range of 500 to 5000 nM. Consider `C=C(c1cc[n+]([O-])cc1)c1cc(Cl)ccc1NS(=O)(=O)c1ccc(C(C)(C)C)cc1`, for which the IC50 under setting [3] was less than 500 nM. For `O=S(=O)(Nc1ccc(Cl)cc1-c1nccc2ccccc12)c1ccc(-c2cnco2)cc1`, the IC50 under setting [1] is less than 2000 nM. On to `CC(C)(C)c1ccc(S(=O)(=O)Nc2ccc(Cl)cc2C(F)(F)c2cc[n+]([O-])cc2)cc1`, for which, under setting [3], the IC50 is less than 500 nM.

Take `CC(C)(C)c1ccc(S(=O)(=O)Nc2ccc(Cl)cc2-c2ccccn2)cc1`: the IC50 under setting [1] is less than 2000 nM. On to `CC(C)(C)c1ccc(S(=O)(=O)Nc2ccc(Cl)cc2Nc2ccncc2)cc1`, for which the IC50 under setting [3] was less than 500 nM. With `CC(C)(C)c1ccc(S(=O)(=O)Nc2ccc(Cl)cc2-c2nccc3c[n+]([O-])ccc23)cc1`, under setting [1], the IC50 was less than 2000 nM. For `COc1ccc(S(=O)(=O)Nc2ccc(Cl)cc2-c2ccc(Cl)cc2)cc1`, under setting [2], the IC50 is 2000 to 10000 nM. In the case of `COC(c1cc[n+]([O-])cc1)c1cc(Cl)ccc1NS(=O)(=O)c1ccc(C(C)(C)C)cc1` (stereo not drawn), the IC50 under setting [4] was in the range of 500 to 5000 nM. Regarding `CN(C)C(c1ccncc1)c1cc(Cl)ccc1NS(=O)(=O)c1ccc(C(C)(C)C)cc1` (stereo not drawn), the IC50 under setting [4] lay in the range of 500 to 5000 nM. On to `COc1ccc(S(=O)(=O)Nc2ccc(Cl)cc2-c2ccccc2)cc1`, for which, under setting [2], the IC50 was 2000 to 10000 nM.

With `CC(C)(C)c1ccc(S(=O)(=O)Nc2ccc(Cl)cc2C(F)(F)c2ccncc2)cc1`, under setting [3], the IC50 is less than 500 nM. With `CC(=O)N(c1ccncc1)c1cc(Cl)ccc1NS(=O)(=O)c1ccc(C(C)(C)C)cc1`, the IC50 under setting [3] is less than 500 nM.
